Data as given in patent publication US20120077738A1, “COMPOSITIONS AND METHODS FOR […] SUSCEPTIBILITY TO ANTIVIRAL AGENTS” (priority 2010, published 2012).

Tested on: genotype 1 HCV
Assay: HCV outcome after liver transplant in HIV/HCV coinfected patients by calcineurin inhibitor
Assay type: in vivo, human
Description: Calcineurin Inhibition Use posttransplant in HIV/HCV infected patients. Eighty HIV/HCV coinfected patients received liver transplants as part of the HIV and transplantation trial from 2003-2009. Of these patients 61 were infected with genotype 1 HCV and received only a liver (not liver+kidney) and are further described here and in the corresponding data shown in FIGS. 1-14.

For `C=CC[C@@H]1/C=C(\C)C[C@H](C)C[C@H](OC)[C@H]2O[C@@](O)(C(=O)C(=O)N3CCCC[C@H]3C(=O)O[C@H](/C(C)=C/[C@@H]3CC[C@@H](O)[C@H](OC)C3)[C@H](C)[C@@H](O)CC1=O)[C@H](C)C[C@@H]2OC` [Tacrolimus], the failed interferon therapy (by calcineurin inhibitor started immediately post transplant, two of the CsA group had switched to Tacrolimus) was 13 patients and the “Sustained Virologic Response (negative HCV PCR 6 months or more after HCV therapy was stopped)” value (patients on Tacrolimus immediately post transplant who received interferon based therapy) was “one patient out of these 14”.
